Measured values: ChEMBL document CHEMBL3860026, “Depsidones from Lichens as Natural Product Inhibitors of M-Phase Phosphoprotein 1, a Human Kinesin Required for Cytokinesis” (J Nat Prod, 2016)
The source made the active and inactive calls. The rule behind the calls is not given here.

How the values were obtained:
[1] = Intrinsic clearance in mouse liver microsomes assessed per mg of protein at 3 uM after 5 to 60 mins by LC-MS/MS method; format: ADME; conditions: read-out: CLH
[2] = biological target: T1, Kinesin-like protein KIF3B (Homo sapiens) (UniProt O15066); experiment: Inhibition of microtubule-stimulated ATPase activity of human Kif3B at 200 uM by pyruvate kinase/lactate dehydrogenase-linked assay
T1 sequence (whole entry): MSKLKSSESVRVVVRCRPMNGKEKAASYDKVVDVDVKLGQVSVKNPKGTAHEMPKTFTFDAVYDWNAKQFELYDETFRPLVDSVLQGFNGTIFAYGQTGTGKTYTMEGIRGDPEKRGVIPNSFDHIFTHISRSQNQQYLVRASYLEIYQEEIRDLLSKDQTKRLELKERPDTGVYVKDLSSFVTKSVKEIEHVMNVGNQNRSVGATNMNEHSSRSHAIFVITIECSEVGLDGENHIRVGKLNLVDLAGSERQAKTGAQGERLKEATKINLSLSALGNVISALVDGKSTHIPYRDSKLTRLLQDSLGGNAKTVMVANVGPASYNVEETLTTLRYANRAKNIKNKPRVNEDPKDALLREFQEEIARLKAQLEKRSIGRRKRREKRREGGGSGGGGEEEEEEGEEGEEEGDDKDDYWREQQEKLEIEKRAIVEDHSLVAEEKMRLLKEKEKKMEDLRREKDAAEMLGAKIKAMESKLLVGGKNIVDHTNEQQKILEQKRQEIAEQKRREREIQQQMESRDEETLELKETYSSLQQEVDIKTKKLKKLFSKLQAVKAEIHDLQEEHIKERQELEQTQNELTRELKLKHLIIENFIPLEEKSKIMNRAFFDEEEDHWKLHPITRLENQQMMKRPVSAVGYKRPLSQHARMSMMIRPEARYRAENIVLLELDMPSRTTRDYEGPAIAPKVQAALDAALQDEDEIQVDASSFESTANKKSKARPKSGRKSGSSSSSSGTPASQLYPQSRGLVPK

[3] = biological target: T2, Chromosome-associated kinesin KIF4A (Homo sapiens) (UniProt O95239); experiment: Inhibition of microtubule-stimulated ATPase activity of human Kif4A at 200 uM by pyruvate kinase/lactate dehydrogenase-linked assay
T2 sequence (whole entry): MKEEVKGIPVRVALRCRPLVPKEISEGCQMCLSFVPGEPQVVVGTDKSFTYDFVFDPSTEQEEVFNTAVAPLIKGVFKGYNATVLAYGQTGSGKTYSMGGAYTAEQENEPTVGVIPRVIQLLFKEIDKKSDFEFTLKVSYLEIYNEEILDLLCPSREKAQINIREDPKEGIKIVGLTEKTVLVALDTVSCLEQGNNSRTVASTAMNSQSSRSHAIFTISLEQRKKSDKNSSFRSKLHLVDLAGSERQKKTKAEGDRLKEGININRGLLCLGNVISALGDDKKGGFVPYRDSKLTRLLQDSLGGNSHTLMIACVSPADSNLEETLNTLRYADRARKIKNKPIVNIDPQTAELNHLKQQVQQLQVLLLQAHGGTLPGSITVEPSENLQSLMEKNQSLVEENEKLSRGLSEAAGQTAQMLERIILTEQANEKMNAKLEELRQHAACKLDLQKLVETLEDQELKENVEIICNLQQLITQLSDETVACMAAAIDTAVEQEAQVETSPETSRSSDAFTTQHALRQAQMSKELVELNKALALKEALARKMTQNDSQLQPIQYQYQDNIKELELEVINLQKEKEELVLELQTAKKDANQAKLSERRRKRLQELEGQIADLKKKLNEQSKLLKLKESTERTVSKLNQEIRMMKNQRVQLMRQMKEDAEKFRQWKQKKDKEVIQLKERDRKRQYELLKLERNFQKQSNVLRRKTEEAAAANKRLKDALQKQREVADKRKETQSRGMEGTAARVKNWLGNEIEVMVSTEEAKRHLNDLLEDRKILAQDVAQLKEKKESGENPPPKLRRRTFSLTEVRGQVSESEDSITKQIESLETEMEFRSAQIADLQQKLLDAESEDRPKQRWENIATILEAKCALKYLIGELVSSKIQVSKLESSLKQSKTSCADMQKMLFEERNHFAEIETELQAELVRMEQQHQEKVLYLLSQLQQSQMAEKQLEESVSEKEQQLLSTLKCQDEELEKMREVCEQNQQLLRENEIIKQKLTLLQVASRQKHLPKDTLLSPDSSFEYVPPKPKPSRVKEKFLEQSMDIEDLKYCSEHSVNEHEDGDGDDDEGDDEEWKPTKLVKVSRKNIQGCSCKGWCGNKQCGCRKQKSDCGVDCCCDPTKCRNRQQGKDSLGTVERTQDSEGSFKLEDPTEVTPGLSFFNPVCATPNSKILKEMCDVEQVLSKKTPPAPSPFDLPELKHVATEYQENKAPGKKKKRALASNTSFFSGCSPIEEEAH

[4] = biological target: Kinesin-like protein KIF20B (Homo sapiens, UniProt Q96Q89); conditions: 1 to 20 uM
Sequence of Kinesin-like protein KIF20B (Q96Q89 whole entry): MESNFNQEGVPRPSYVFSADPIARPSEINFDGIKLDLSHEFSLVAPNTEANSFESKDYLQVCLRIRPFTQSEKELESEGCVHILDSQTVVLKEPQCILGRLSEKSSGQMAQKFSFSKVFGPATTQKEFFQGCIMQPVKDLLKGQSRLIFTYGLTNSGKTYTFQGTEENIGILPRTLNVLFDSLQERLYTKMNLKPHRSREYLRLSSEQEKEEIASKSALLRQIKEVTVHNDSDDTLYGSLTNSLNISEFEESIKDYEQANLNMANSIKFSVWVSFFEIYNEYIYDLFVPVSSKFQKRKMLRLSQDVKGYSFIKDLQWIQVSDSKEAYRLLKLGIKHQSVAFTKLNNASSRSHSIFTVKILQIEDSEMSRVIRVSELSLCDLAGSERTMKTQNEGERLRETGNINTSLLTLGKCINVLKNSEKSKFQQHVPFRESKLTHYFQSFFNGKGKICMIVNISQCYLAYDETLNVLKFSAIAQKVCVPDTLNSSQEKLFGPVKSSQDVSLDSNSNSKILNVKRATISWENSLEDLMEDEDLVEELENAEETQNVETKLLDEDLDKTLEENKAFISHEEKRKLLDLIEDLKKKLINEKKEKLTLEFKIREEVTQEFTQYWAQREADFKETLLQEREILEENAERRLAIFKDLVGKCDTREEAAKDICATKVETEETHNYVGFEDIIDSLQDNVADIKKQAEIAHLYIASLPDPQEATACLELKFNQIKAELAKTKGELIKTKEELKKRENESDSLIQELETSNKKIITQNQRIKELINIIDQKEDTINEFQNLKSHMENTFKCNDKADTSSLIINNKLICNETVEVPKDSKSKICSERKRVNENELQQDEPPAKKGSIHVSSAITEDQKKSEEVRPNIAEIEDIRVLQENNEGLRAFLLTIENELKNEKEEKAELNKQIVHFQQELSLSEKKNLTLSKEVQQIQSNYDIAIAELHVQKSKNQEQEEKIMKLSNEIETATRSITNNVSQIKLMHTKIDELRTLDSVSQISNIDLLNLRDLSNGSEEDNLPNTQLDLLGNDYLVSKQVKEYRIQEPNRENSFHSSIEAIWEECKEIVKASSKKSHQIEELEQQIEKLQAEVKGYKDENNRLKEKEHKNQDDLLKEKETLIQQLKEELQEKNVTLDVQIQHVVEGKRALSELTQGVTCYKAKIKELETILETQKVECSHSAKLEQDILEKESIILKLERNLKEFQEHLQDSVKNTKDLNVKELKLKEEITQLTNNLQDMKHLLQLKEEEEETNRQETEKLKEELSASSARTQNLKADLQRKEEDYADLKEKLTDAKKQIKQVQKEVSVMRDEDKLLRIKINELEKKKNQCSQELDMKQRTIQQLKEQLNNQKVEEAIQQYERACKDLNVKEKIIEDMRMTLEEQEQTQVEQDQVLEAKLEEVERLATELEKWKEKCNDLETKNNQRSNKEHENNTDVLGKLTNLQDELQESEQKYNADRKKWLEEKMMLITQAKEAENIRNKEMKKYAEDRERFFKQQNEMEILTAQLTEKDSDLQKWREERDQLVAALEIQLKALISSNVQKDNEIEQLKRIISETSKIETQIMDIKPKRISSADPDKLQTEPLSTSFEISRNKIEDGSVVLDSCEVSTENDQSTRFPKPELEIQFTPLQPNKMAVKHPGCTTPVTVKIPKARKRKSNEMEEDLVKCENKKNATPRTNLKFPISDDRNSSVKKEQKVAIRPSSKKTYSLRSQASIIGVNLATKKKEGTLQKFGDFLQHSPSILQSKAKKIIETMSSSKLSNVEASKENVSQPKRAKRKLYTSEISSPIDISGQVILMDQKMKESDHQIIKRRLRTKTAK

[5] = Half life in human liver microsomes at 3 uM by LC-MS/MS method; format: ADME
[6] = Cytotoxicity against human K562 cells assessed as growth inhibition after 72 hrs by Alamar Blue assay; format: functional, cell-based; conditions: K562, 72 h
[7] = biological target: T2, Chromosome-associated kinesin KIF4A (Homo sapiens); experiment: Inhibition of basal ATPase activity of human Kif4A at 200 uM by pyruvate kinase/lactate dehydrogenase-linked assay

- microsomal CLint at 3 µM [1]: 61.6 µL/min/mg
- inhibition [2]: 40%
- inhibition [3]: 40%
- inhibition [4]: Active
- half-life at 3 µM [5]: 4.5 min
- inhibition [7]: 40%
SMILES: CCCCCC(=O)Cc1cc(O)cc2c1C(=O)Oc1cc(O)c(C(=O)O)c(CCCCC)c1O2 [PHYSODIC ACID]
- EC50 [6]: 32.6 µM
